Measured values: US20110172147A1, “NEUROPEPTIDE-2 RECEPTOR (Y-2R) AGONISTS” (priority 2009, published 2011)
*1 amine or outer side, *2 acyl side, *3 side chain or, on linkers, in order; H or OH if unused. Where a SMILES comes first, the peptide text is derived from it. [ ]: non-standard residue; d: D form. The star is where a group is joined. MeO(CH2CH2O)23CH2CH2CO = COCCOCCOCCOCCOCCOCCOCCOCCOCCOCCOCCOCCOCCOCCOCCOCCOCCOCCOCCOCCOCCOCCOCCOCCC(=O)*; X1 = O=C(Cn1cnc2ccc(N3CCN([*:1])CC3)cc2c1=O)[*:2]; Arachidoyl = CCCCCCCCCCCCCCCCCCCC(=O)*; NMeR = CN[C@@H](CCCNC(=N)N)C(=O)O; Cit = NC(=O)NCCC[C@H](N)C(=O)O; Guanidino = N=C(N)N*

Experiments:
Format in all cases: cell-based
Y1R = target: T1, Y1R (Homo sapiens, UniProt P25929); experiment: CaFlux Assay (FLIPR), Y1R
T1 sequence (P25929 1-384): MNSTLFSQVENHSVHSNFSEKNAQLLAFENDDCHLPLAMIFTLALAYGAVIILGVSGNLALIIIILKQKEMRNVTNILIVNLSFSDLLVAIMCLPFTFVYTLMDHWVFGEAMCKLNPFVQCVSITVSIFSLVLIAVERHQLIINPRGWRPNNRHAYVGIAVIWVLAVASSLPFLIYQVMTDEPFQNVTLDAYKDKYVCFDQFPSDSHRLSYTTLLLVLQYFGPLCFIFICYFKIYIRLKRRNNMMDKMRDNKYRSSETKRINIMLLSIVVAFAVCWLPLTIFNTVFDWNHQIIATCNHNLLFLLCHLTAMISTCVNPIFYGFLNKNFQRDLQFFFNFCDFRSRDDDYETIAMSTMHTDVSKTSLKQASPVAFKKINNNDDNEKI

Y4R = Y4R (Homo sapiens, UniProt P50391); experiment: CaFlux Assay (FLIPR), Y4R
Y4R, sequence (P50391 whole entry): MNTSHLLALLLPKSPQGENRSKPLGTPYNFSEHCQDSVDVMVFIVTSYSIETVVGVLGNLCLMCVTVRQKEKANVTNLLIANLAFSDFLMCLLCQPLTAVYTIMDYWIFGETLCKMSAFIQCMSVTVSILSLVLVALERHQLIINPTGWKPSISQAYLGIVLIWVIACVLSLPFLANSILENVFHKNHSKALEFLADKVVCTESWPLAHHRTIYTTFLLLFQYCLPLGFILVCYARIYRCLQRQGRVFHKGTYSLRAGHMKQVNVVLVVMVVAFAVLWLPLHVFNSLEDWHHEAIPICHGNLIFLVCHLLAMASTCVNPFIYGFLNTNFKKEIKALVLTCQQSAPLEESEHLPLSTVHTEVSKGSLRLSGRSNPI

Y5R = target: T2, Y5R (Homo sapiens, UniProt Q15761); experiment: CaFlux Assay (FLIPR), Y5R
T2 sequence (Q15761 1-445): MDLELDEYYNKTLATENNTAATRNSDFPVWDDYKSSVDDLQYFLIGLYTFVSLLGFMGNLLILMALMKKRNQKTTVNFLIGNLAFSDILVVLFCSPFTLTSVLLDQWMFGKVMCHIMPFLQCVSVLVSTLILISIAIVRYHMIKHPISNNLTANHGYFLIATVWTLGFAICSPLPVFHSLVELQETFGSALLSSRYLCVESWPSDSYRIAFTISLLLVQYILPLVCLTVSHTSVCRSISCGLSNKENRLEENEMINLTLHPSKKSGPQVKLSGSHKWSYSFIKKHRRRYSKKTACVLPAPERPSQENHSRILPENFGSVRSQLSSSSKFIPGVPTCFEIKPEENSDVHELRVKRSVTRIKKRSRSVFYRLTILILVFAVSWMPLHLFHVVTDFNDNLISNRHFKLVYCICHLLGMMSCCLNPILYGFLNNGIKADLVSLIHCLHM

hNPY2R [1] = target: T3, hNPY2R (Homo sapiens, UniProt P49146); experiment: cAMP Agonist Assay, HEK293/hNPY2R; parameters: expressed in transfected cells; host or cells: HEK293/hNPY2R (G418 selection)
T3 sequence (P49146 1-381): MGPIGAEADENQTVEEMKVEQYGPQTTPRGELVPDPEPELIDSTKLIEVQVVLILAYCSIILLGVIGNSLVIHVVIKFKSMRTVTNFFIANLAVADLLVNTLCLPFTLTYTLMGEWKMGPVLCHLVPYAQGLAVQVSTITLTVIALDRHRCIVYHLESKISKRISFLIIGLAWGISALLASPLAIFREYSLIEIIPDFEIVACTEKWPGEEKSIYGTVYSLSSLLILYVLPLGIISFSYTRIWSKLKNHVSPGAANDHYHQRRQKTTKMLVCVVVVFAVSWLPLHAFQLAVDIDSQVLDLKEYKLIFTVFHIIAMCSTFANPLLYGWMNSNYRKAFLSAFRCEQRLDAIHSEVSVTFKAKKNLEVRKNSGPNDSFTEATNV
In short: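 HEK293/hNPY2R cells (10,000/well, overnight) stimulated 30 min at room temperature with compound plus 5 μM forskolin and 0.5 mM IBMX (1.1% DMSO final). Lysate cAMP measured by competitive chemiluminescent ELISA (AP conjugate, CSPD substrate); quadruplicates.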

hNPY2R [2] = target: T3, hNPY2R; experiment: CaFlux Assay (FLIPR), Y2R; parameters: expressed in transfected cells; host or cells: HEK-293 stably transfected with G protein chimera Gαqi9
In short: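 Gαqi9-chimera HEK-293 stable lines; Calcium-3 dye load 1 h, 37 °C (HBSS, 20 mM HEPES, 5 mM probenecid); compound in HBSS/0.05% BSA/1% DMSO; FLIPR read every 1.5 s for 100 s; peak minus pre-addition baseline, % of max positive-control response.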

Row | Structure (SMILES) | EC50 (Y1R) | EC50 (Y4R) | EC50 (Y5R) | EC50 (hNPY2R [1]) | EC50 (hNPY2R [2]) | Y5R FLIPR agonist character (partial agonist mark) (Y5R; FLIPR)
1 | CCCCCCCCCCCCCCCC(=O)NCCCCCC(=O)NCCCCCC(=O)N[C@@H](C(=O)N[C@@H](CCCCNC(=O)CCOCCOCCOCCOCCOCCOCCOCCOCCOCCOCCOCCOCCOCCOCCOCCOCCOCCOCCOCCOCCOCCOCCOCCOC)C(=O)N1CCN(c2ccc3ncn(CC(=O)N[C@@H](CCCNC(=N)N)C(=O)N[C@@H](Cc4c[nH]cn4)C(=O)N[C@@H](Cc4ccc(O)cc4)C(=O)N[C@@H](CC(C)C)C(=O)N[C@@H](CC(N)=O)C(=O)N[C@@H](Cc4c[nH]c5ccccc45)C(=O)N[C@H](C(=O)N[C@H](C(=O)N[C@@H](CCCNC(=N)N)C(=O)N[C@@H](CCC(N)=O)C(=O)N(C)[C@@H](CCCNC(=N)N)C(=O)N[C@@H](Cc4ccc(O)cc4)C(N)=O)[C@@H](C)O)C(C)C)c(=O)c3c2)CC1)[C@@H](C)CC [Example 43] | > 6000 nM | > 6000 nM | 316 nM | 0.1 nM | 0.1 nM | –
2 | CCCCCCCCCCCCCCCCCCCC(=O)N[C@@H](CCC(=O)O)C(=O)N[C@@H](CCC(=O)O)C(=O)N[C@H](C(=O)N[C@@H](CCCCNC(=O)CCOCCOCCOCCOCCOCCOCCOCCOC)C(=O)N1CCN(c2ccc3ncn(CC(=O)N[C@@H](CCCNC(N)=O)C(=O)N[C@@H](Cc4c[nH]cn4)C(=O)N[C@@H](Cc4ccc(O)cc4)C(=O)N[C@@H](CC(C)C)C(=O)N[C@@H](CC(N)=O)C(=O)N[C@@H](Cc4c[nH]c5ccccc45)C(=O)N[C@H](C(=O)N[C@H](C(=O)N[C@@H](CCCNC(=N)N)C(=O)N[C@@H](CCC(N)=O)C(=O)N(C)[C@@H](CCCNC(=N)N)C(=O)N[C@@H](Cc4ccc(O)cc4)C(N)=O)[C@@H](C)O)C(C)C)c(=O)c3c2)CC1)[C@@H](C)CC [Example 44] | > 6000 nM | > 6000 nM | > 6000 nM | 0.43 nM | 0.313 nM | –
3 | CCCCCCCCCCCCCCCCCCCC(=O)N[C@@H](CCC(=O)O)C(=O)N[C@@H](CCC(=O)O)C(=O)N[C@H](C(=O)N[C@@H](CCCCNC(=O)CCOCCOCCOCCOCCOCCOCCOCCOCCOCCOCCOCCOC)C(=O)N1CCN(c2ccc3ncn(CC(=O)N[C@@H](CCCNC(N)=O)C(=O)N[C@@H](Cc4c[nH]cn4)C(=O)N[C@@H](Cc4ccc(O)cc4)C(=O)N[C@@H](CC(C)C)C(=O)N[C@@H](CC(N)=O)C(=O)N[C@@H](Cc4c[nH]c5ccccc45)C(=O)N[C@H](C(=O)N[C@H](C(=O)N[C@@H](CCCNC(=N)N)C(=O)N[C@@H](CCC(N)=O)C(=O)N(C)[C@@H](CCCNC(=N)N)C(=O)N[C@@H](Cc4ccc(O)cc4)C(N)=O)[C@@H](C)O)C(C)C)c(=O)c3c2)CC1)[C@@H](C)CC [Example 45] | > 6000 nM | > 6000 nM | > 6000 nM | 0.3 nM | 0.158 nM | –
4 | CCCCCCCCCCCCCCCCCCCC(=O)N[C@@H](CCC(=O)O)C(=O)N[C@@H](CCC(=O)O)C(=O)N[C@H](C(=O)N[C@@H](CCCCNC(=O)CCOCCOCCOCCOCCOCCOCCOCCOCCOCCOCCOCCOC)C(=O)N1CCN(c2ccc3ncn(CC(=O)N[C@@H](CCCNC(=N)N)C(=O)N[C@@H](Cc4c[nH]cn4)C(=O)N[C@@H](Cc4ccc(O)cc4)C(=O)N[C@@H](CC(C)C)C(=O)N[C@@H](CC(N)=O)C(=O)N[C@@H](Cc4c[nH]c5ccccc45)C(=O)N[C@H](C(=O)N[C@H](C(=O)N[C@@H](CCCNC(=N)N)C(=O)N[C@@H](CCC(N)=O)C(=O)N(C)[C@@H](CCCNC(=N)N)C(=O)N[C@@H](Cc4ccc(O)cc4)C(N)=O)[C@@H](C)O)C(C)C)c(=O)c3c2)CC1)[C@@H](C)CC [Example 46] | > 9000 nM | > 9000 nM | 4580 nM | 0.29 nM | 0.214 nM | –
5 | CCCCCCCCCCCCCCCCCCCC(=O)N[C@@H](CCC(=O)O)C(=O)N[C@@H](CCC(=O)O)C(=O)N[C@H](C(=O)N[C@@H](CCCCNC(=O)CCOCCOCCOCCOCCOCCOCCOCCOCCOCCOCCOCCOCCOCCOCCOCCOC)C(=O)N1CCN(c2ccc3ncn(CC(=O)N[C@@H](CCCNC(N)=O)C(=O)N[C@@H](Cc4c[nH]cn4)C(=O)N[C@@H](Cc4ccc(O)cc4)C(=O)N[C@@H](CC(C)C)C(=O)N[C@@H](CC(N)=O)C(=O)N[C@@H](Cc4c[nH]c5ccccc45)C(=O)N[C@H](C(=O)N[C@H](C(=O)N[C@@H](CCCNC(=N)N)C(=O)N[C@@H](CCC(N)=O)C(=O)N(C)[C@@H](CCCNC(=N)N)C(=O)N[C@@H](Cc4ccc(O)cc4)C(N)=O)[C@@H](C)O)C(C)C)c(=O)c3c2)CC1)[C@@H](C)CC [Example 47] | > 6000 nM | > 6000 nM | > 6000 nM | 0.23 nM | 0.158 nM | –
6 | CCCCCCCCCCCCCCCCCCCC(=O)N[C@@H](CCC(=O)O)C(=O)N[C@@H](CCC(=O)O)C(=O)N[C@H](C(=O)N[C@@H](CCCCNC(=O)CCOCCOCCOCCOCCOCCOCCOCCOCCOCCOCCOCCOCCOCCOCCOCCOC)C(=O)N1CCN(c2ccc3ncn(CC(=O)N[C@@H](CCCNC(=N)N)C(=O)N[C@@H](Cc4c[nH]cn4)C(=O)N[C@@H](Cc4ccc(O)cc4)C(=O)N[C@@H](CC(C)C)C(=O)N[C@@H](CC(N)=O)C(=O)N[C@@H](Cc4c[nH]c5ccccc45)C(=O)N[C@H](C(=O)N[C@H](C(=O)N[C@@H](CCCNC(=N)N)C(=O)N[C@@H](CCC(N)=O)C(=O)N(C)[C@@H](CCCNC(=N)N)C(=O)N[C@@H](Cc4ccc(O)cc4)C(N)=O)[C@@H](C)O)C(C)C)c(=O)c3c2)CC1)[C@@H](C)CC [Example 48] | > 9000 nM | > 9000 nM | 4320 nM | 0.52 nM | 0.388 nM | –
7 | CCCCCCCCCCCCCCCCCCCC(=O)N[C@@H](CCC(=O)O)C(=O)N[C@@H](CCC(=O)O)C(=O)N[C@H](C(=O)N[C@@H](CCCCNC(=O)CCOCCOCCOCCOCCOCCOCCOCCOCCOCCOCCOCCOCCOCCOCCOCCOCCOCCOCCOCCOCCOCCOCCOCCOC)C(=O)N1CCN(c2ccc3ncn(CC(=O)N[C@@H](CCCNC(N)=O)C(=O)N[C@@H](Cc4c[nH]cn4)C(=O)N[C@@H](Cc4ccc(O)cc4)C(=O)N[C@@H](CC(C)C)C(=O)N[C@@H](CC(N)=O)C(=O)N[C@@H](Cc4c[nH]c5ccccc45)C(=O)N[C@H](C(=O)N[C@H](C(=O)N[C@@H](CCCNC(=N)N)C(=O)N[C@@H](CCC(N)=O)C(=O)N(C)[C@@H](CCCNC(=N)N)C(=O)N[C@@H](Cc4ccc(O)cc4)C(N)=O)[C@@H](C)O)C(C)C)c(=O)c3c2)CC1)[C@@H](C)CC [Example 49] | > 9000 nM | > 9000 nM | 518 nM | 0.25 nM | 0.098 nM | P.A
8 | CCCCCCCCCCCCCCCCCCCC(=O)N[C@@H](CCC(=O)O)C(=O)N[C@@H](CCC(=O)O)C(=O)N[C@H](C(=O)N[C@@H](CCCCNC(=O)CCOCCOCCOCCOCCOCCOCCOCCOCCOCCOCCOCCOCCOCCOCCOCCOCCOCCOCCOCCOCCOCCOCCOCCOC)C(=O)N1CCN(c2ccc3ncn(CC(=O)N[C@@H](CCCNC(N)=O)C(=O)N[C@@H](Cc4c[nH]cn4)C(=O)N[C@@H](Cc4ccc(O)cc4)C(=O)N[C@@H](CC(C)C)C(=O)N[C@@H](CC(N)=O)C(=O)N[C@@H](Cc4c[nH]c5ccccc45)C(=O)N[C@H](C(=O)N[C@H](C(=O)N[C@@H](CCC(=O)NC(=N)N)C(=O)N[C@@H](CCC(N)=O)C(=O)N(C)[C@@H](CCCNC(=N)N)C(=O)N[C@@H](Cc4ccc(O)cc4)C(N)=O)[C@@H](C)O)C(C)C)c(=O)c3c2)CC1)[C@@H](C)CC [Example 51] (Arachidoyl-EEIK(MeO(CH2CH2O)23CH2CH2CO)[X1][Cit]HYLNWVTE(Guanidino)Q[NMeR]Y-NH2) | > 6000 nM | > 6000 nM | > 6000 nM | 5.5 nM | 9.4 nM | –
